From US7674801B2 (AstraZeneca AB, priority 2006, dated 2010)
In brackets after ≈: the same amount, converted by molar mass.

Assays:
[1] = target: S. aureus (SAU) GyrB ATPase (Staphylococcus aureus, UniProt P0A0K8); assay: S. aureus GyrB ATPase inhibition, ammonium molybdate/malachite green phosphate detection assay; type: biochemical; details: read-out: S. aureus (SAU) GyrB ATPase % Inhibition, compound concentration 12.5 μM
Outline: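 Phosphate from ATP hydrolysis (500 μM ATP) read as malachite green/molybdate absorbance at 650 nm after acid quench. Reaction: 1.25 nM S. aureus GyrB plus 1.25 nM E. coli GyrA, sheared DNA, Hepes pH 7.5 with Mg2+. IC50 fitted over 10 concentrations, normalised to DMSO (2%) and novobiocin (2 μM) controls.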

Streptococcus pneumoniae = assay: Bacterial susceptibility testing in liquid media (MIC); type: cell-based; details: 37° C., 24 hrs
Experimental: Compounds were tested for antimicrobial activity by susceptibility testing in liquid media. Compounds were dissolved in dimethylsulfoxide and tested in 10 doubling dilutions in the susceptibility assays. The organisms used in the assay were grown overnight on suitable agar media and then suspended in a liquid medium appropriate for the growth of the organism. The suspension was a 0.5 McFarland and a further 1 in 10 dilution was made into the same liquid medium to prepare the final organism suspension in 100 μL. Plates were incubated under appropriate conditions at 37° C. for 24 hrs prior to reading. The Minimum Inhibitory Concentration was determined as the lowest drug concentration able to reduce growth by 80% or more.

Sequence of S. aureus (SAU) GyrB ATPase (P0A0K8 whole entry): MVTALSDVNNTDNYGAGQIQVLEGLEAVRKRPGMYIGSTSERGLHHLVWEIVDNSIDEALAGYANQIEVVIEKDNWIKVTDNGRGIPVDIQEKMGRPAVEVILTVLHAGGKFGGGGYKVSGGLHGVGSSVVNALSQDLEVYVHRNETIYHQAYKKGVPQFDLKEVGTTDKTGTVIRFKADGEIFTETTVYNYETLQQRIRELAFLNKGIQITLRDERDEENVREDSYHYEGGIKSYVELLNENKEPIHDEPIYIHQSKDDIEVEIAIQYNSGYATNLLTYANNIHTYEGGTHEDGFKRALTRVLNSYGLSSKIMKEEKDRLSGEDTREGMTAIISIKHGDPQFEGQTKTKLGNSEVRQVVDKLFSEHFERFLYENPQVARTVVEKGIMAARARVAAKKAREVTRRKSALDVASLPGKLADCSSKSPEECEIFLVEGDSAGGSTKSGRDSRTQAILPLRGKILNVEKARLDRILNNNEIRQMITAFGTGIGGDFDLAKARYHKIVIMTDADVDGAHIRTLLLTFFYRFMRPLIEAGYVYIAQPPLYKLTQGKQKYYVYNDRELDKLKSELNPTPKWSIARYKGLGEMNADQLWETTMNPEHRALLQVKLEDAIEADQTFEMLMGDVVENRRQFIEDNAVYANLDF
Sequence of S. aureus (SAU) GyrB ATPase (P0AES4 whole entry, further chain): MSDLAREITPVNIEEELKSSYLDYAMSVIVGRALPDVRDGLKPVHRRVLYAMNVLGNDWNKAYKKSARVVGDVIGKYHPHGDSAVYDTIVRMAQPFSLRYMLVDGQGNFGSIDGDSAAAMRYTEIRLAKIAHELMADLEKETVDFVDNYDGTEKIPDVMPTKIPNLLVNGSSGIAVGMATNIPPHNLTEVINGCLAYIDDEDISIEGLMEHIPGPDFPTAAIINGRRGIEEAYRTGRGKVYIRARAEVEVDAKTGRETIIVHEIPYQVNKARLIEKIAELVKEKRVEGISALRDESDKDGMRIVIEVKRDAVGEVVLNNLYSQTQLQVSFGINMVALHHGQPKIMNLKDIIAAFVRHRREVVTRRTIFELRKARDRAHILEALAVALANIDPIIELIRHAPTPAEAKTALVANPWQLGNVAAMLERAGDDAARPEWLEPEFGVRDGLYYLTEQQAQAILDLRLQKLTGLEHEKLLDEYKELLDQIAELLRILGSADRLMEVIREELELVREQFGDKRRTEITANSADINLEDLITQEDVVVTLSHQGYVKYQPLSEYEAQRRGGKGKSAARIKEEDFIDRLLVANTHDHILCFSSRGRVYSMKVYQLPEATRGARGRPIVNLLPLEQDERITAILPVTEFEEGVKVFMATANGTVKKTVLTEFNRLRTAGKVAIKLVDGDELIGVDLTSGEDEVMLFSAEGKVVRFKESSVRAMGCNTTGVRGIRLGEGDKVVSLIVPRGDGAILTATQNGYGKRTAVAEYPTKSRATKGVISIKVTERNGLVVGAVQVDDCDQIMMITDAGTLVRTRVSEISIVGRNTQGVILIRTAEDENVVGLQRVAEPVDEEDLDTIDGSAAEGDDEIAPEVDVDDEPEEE

SMILES | inhibition at 12.5 µM [1] [%] | MIC (lowest concentration reducing growth by 80% or more) (Streptococcus pneumoniae) [µg/mL]
CCCCNC(=O)c1nc(-c2ccc(NC(=O)NCC)nc2)sc1C(=O)O [Example 26, 4-[(Butylamino)carbonyl]-2-(6-{[(ethylamino)carbonyl]amino}pyridin-3-yl)-1,3-thiazole-5-carboxylic acid] | 70.5 | 2.0 (≈ 5.11 µM)
CCNC(=O)Nc1cc(-c2nc(C(C)(C)C)cs2)c(-c2cncc(C(=O)NC)c2)cn1 [Example 164, 4′-(4-tert-butyl-1,3-thiazol-2-yl)-6′-{[(ethylamino)carbonyl]amino}-N-methyl-3,3′-bipyridine-5-carboxamide] | 88.1 | –
